The test system of one assay is HT29 cells. The experiment in a line: Mitosis inhibition assay (MIA), checkpoint abrogation after etoposide. Type of assay: cell-based. Particulars: Homo sapiens, HT-29, etoposide 50 μM 1 hour, then compound with nocodazole 100 ng/mL, 21 hours, read-out: MIA IC50 (concentration required to allow 50% of cells to enter mitosis).
In the case of `COCCNc1cccc2cc(Nc3cnc(C#N)cn3)ncc12` [AA-036], the IC50 was ≤ 10 µM.
In the case of `COCCNC(=O)c1cccc2cc(Nc3cnc(C#N)c(OC(C)CN(C)C)n3)ncc12` (stereo not shown) [AA-066], the IC50 was ≤ 10 µM.
Turning to `C[C@H](C[N+](C)(C)[O-])Oc1nc(Nc2cc3cccc(Cl)c3cn2)cnc1C#N` [AA-071, (R)-2-(6-(8-Chloroisoquinolin-3-ylamino)-3-cyanopyrazin-2-yloxy)-N,N-dimethylpropan-1-amine oxide], the IC50 is ≤ 10 µM.
`N#Cc1ncc(Nc2cc3cccc(NCCN4CCOCC4)c3cn2)nc1OCC1CCOC1` (stereo not shown) [AA-029]: the IC50 was ≤ 10 µM.
Same read-out and setting: under `COc1nc(Nc2cc3cccc(NCCN4CCOCC4)c3cn2)cnc1C#N` [AA-030] stands ≤ 10 µM; under `N#Cc1ncc(Nc2cc3cccc(F)c3cn2)nc1O[C@@H]1CCNC1` [AA-072], ≤ 10 µM; under `COCCCNc1cccc2cc(Nc3cnc(C#N)cn3)ncc12` [AA-035], ≤ 10 µM.

Another assay deals with T1, CHK1 (Homo sapiens, UniProt O14757).
T1 sequence (O14757 1-476): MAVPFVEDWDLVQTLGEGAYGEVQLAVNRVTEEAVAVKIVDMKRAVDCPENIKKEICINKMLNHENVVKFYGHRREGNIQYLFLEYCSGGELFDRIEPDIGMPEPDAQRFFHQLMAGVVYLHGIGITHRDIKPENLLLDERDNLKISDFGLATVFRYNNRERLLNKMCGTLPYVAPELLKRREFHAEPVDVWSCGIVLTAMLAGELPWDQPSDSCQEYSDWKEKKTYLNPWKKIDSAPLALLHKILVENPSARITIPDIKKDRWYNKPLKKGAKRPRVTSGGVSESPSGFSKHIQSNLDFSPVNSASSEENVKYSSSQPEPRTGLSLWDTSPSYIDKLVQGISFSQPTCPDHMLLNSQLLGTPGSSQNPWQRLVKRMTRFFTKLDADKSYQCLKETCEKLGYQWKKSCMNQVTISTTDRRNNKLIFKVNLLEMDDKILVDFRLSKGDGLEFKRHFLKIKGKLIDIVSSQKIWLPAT
Kind of assay: CHK1 kinase function inhibition (DELFIA assay, phosphorylation of CDC25C peptide). Type of assay: biochemical. Particulars: CHK1 1 nM, ATP 30 μM, 30 minutes at room temperature.
The compound `N#Cc1cnc(Nc2cc3cc[nH]c3cn2)cn1` [CC-001, 5-(1H-Pyrrolo[2,3-c]pyridin-5-ylamino)pyrazine-2-carbonitrile] had an IC50 of 1 to 10 µM.
`c1nc2cnc(Nc3cncc(OCC4CCNCC4)n3)cc2[nH]1` [BB-013] returned an IC50 of 1 to 10 µM.
Take `CC(=O)Nc1cccc2cc(Nc3cnc(C#N)c(O[C@H](C)CN(C)C)n3)ncc12` [AA-064]: the IC50 was ≤ 1 µM.
The compound `N#Cc1cnc(Nc2cc3cccc(-c4cc[nH]n4)c3cn2)cn1` [AA-019, 5-(8-(1H-pyrazol-3-yl)isoquinolin-3-ylamino)pyrazine-2-carbonitrile] yielded an IC50 of 1 to 10 µM.
Consider `COc1cccc2cc(Nc3cnc(C#N)cn3)ncc12` [AA-021, 5-(8-methoxyisoquinolin-3-ylamino)pyrazine-2-carbonitrile], for which the IC50 lay in the range of 1 to 10 µM.
Consider `N#Cc1cnc(Nc2cc3c(cn2)ncn3CC2CCCNC2)cn1` (stereo not shown) [BB-020, 5-(1-(Piperidin-3-ylmethyl)-1H-imidazo[4,5-c]pyridin-6-ylamino)pyrazine-2-carbonitrile], for which the IC50 fell in the range of 1 to 10 µM.
Same read-out and setting: under `COCCNc1cccc2cc(Nc3cnc(C#N)cn3)ncc12` [AA-036] stands ≤ 1 µM.
`N#Cc1cnc(Nc2cc3c(cn2)ncn3CCN)cn1` [BB-019, 5-(1-(2-Aminoethyl)-1H-imidazo[4,5-c]pyridin-6-ylamino)pyrazine-2-carbonitrile] had an IC50 of 1 to 10 µM.
Regarding `N#Cc1ncc(Nc2cc3[nH]cnc3cn2)nc1O[C@@H]1CCNC1` [BB-027], the IC50 was ≤ 1 µM.
On to `COc1nc(Nc2cc3cccc(NCCO)c3cn2)cnc1C#N` [AA-042], for which the IC50 was ≤ 1 µM.
The same measure, in the same setting: with `COc1cc(OC)c2cnc(Nc3cnc(C#N)cn3)cc2c1` [AA-011, 5-(6,8-Dimethoxyisoquinolin-3-ylamino)pyrazine-2-carbonitrile] the figure was 1 to 10 µM.
Regarding `COCCNC(=O)c1cccc2cc(Nc3cnc(C#N)c(OC(C)CN(C)C)n3)ncc12` (stereo not shown) [AA-066], the IC50 is 1 to 10 µM.
On the same count and under the same terms, with `C[C@H](C[N+](C)(C)[O-])Oc1nc(Nc2cc3cccc(Cl)c3cn2)cnc1C#N` [AA-071, (R)-2-(6-(8-Chloroisoquinolin-3-ylamino)-3-cyanopyrazin-2-yloxy)-N,N-dimethylpropan-1-amine oxide] the figure was ≤ 1 µM; with `N#Cc1ncc(Nc2cc3cccc(NCCN4CCOCC4)c3cn2)nc1OCC1CCOC1` (stereo not shown) [AA-029], ≤ 1 µM.
Turning to `N#Cc1ncc(Nc2cc3cccc(NCCO)c3cn2)nc1OCC1CCOC1` (stereo not shown) [AA-047], the IC50 was 1 to 10 µM.
Same read-out and setting: with `N#Cc1ncc(Nc2cc3cccc(NCCO)c3cn2)nc1OCC1CC1` [AA-045] the figure was ≤ 1 µM.
Still for that read-out and setting: under `CN1CCCC(Oc2nc(Nc3cc4[nH]cnc4cn3)cnc2C#N)C1` (stereo not shown) [BB-025] stands ≤ 1 µM; under `N#Cc1cnc(Nc2cc3[nH]c(C4CC4)nc3cn2)cn1` [BB-001, 5-(2-Cyclopropyl-1H-imidazo[4,5-c]pyridin-6-ylamino)pyrazine-2-carbonitrile], 1 to 10 µM; under `Cc1cccc2cc(Nc3cnc(C#N)cn3)ncc12` [AA-024], 1 to 10 µM.
As to `CN1CCCC(COc2nc(Nc3cc4[nH]cnc4cn3)cnc2C#N)C1` (stereo not shown) [BB-026], the IC50 was ≤ 1 µM.
As for `COc1nc(Nc2cc3ccccc3cn2)cnc1C#N` [AA-048], the IC50 was ≤ 1 µM.
With `N#Cc1cnc(Nc2cc3cc(Cl)ccc3cn2)cn1` [AA-018, 5-(6-Chloroisoquinolin-3-ylamino)pyrazine-2-carbonitrile], the IC50 is 1 to 10 µM.
As to `COc1nc(Nc2cc3cccc(NCCN4CCOCC4)c3cn2)cnc1C#N` [AA-030], the IC50 was ≤ 1 µM.
Still for that read-out and setting: with `N#Cc1cnc(Nc2cc3c(cn2)ncn3[C@H]2CCCNC2)cn1` [BB-021, (S)-5-(1-(Piperidin-3-yl)-1H-imidazo[4,5-c]pyridin-6-ylamino)pyrazine-2-carbonitrile] the figure was ≤ 1 µM.
For the compound `N#Cc1cnc(Nc2cc3[nH]c(CCC4CCNCC4)nc3cn2)cn1` [BB-011], the IC50 is ≤ 1 µM.
`N#Cc1cnc(Nc2cc3c(cn2)ncn3[C@@H]2CCCNC2)cn1` [BB-023, (R)-5-(1-(Piperidin-3-yl)-1H-imidazo[4,5-c]pyridin-6-ylamino)pyrazine-2-carbonitrile] had an IC50 of 1 to 10 µM.
In the case of `CC(=O)Nc1cccc2cc(Nc3cnc(C#N)cn3)ncc12` [AA-062, N-(3-(5-Cyanopyrazin-2-ylamino)isoquinolin-8-yl)acetamide], the IC50 is ≤ 1 µM.
Take `N#Cc1cnc(Nc2cc3c(cn2)ncn3C2CCNCC2)cn1` [BB-022, 5-(1-(Piperidin-4-yl)-1H-imidazo[4,5-c]pyridin-6-ylamino)pyrazine-2-carbonitrile]: the IC50 was 1 to 10 µM.
As for `N#Cc1cnc(Nc2cc3[nH]c(-c4ccc(N5CCNCC5)cc4)nc3cn2)cn1` [BB-006], the IC50 was 1 to 10 µM.
`Clc1cccc2cc(Nc3cncc(OCC4CCNCC4)n3)ncc12` [AA-005] displayed an IC50 of 1 to 10 µM.
With `N#Cc1cnc(Nc2cc3c(Br)ccc(Cl)c3cn2)cn1` [AA-070, 5-(5-Bromo-8-chloroisoquinolin-3-ylamino)pyrazine-2-carbonitrile], the IC50 was 1 to 10 µM.
Compound `N#Cc1ncc(Nc2cc3ccccc3cn2)nc1OCC(=O)O` [AA-069, 2-(3-Cyano-6-(isoquinolin-3-ylamino)pyrazin-2-yloxy)acetic acid] showed an IC50 of 1 to 10 µM.
As for `CC(CN(C)C)Oc1nc(Nc2cc3[nH]cnc3cn2)cnc1C#N` (stereo not shown) [BB-024, 5-(3H-Imidazo[4,5-c]pyridin-6-ylamino)-3-(1-(dimethylamino)propan-2-yloxy)pyrazine-2-carbonitrile], the IC50 is ≤ 1 µM.
Compound `CCOC(=O)COc1nc(Nc2cc3ccccc3cn2)cnc1C#N` [AA-068, Ethyl 2-(3-cyano-6-(isoquinolin-3-ylamino)pyrazin-2-yloxy)acetate] came in with an IC50 of 1 to 10 µM.
As to `CN1CCCC(COc2nc(Nc3cc4cccc(Cl)c4cn3)cnc2C#N)C1` (stereo not shown) [AA-009], the IC50 is ≤ 1 µM.
For the compound `COCCC(=O)Nc1cccc2cc(Nc3cnc(C#N)cn3)ncc12` [AA-063, N-(3-(5-Cyanopyrazin-2-ylamino)isoquinolin-8-yl)-3-methoxypropanamide], the IC50 lay in the range of 1 to 10 µM.
In turn, `N#Cc1cnc(Nc2cc3cccc(Br)c3cn2)cn1` [AA-017, 5-(8-Bromoisoquinolin-3-ylamino)pyrazine-2-carbonitrile] yielded an IC50 of 1 to 10 µM.
As for `N#Cc1ncc(Nc2cc3cccc(NCCCN4CCOCC4)c3cn2)nc1OCC1CC1` [AA-028], the IC50 is ≤ 1 µM.
With `Cn1cnc2cnc(Nc3cnc(C#N)c(OCC4CCNCC4)n3)cc21`, the IC50 was ≤ 1 µM.
Regarding `N#Cc1ncc(Nc2cc3cccc(F)c3cn2)nc1O[C@@H]1CCNC1` [AA-072], the IC50 was ≤ 1 µM.
On the same count and under the same terms, under `CC(C)CCOc1nc(Nc2cc3cccc(NCCO)c3cn2)cnc1C#N` [AA-046] stands 1 to 10 µM; under `COCCCNc1cccc2cc(Nc3cnc(C#N)cn3)ncc12` [AA-035], ≤ 1 µM.

In the next assay the test system is HT29 colon carcinoma cells. The experiment in a line: Cytotoxicity assay (SRB). The format is cell-based. The conditions noted are these: Homo sapiens, HT-29, 96 h, read-out: SRB IC50 (concentration required to inhibit growth by 50%).
For the compound `N#Cc1ncc(Nc2cc3ccccc3cn2)nc1OCC1CCNCC1` [AA-003], the IC50 was ≤ 10 µM.
With `N#Cc1ncc(Nc2cc3cccc(Cl)c3cn2)nc1OCC1CCNCC1` [AA-006], the IC50 was ≤ 10 µM.
Turning to `N#Cc1ncc(Nc2cc3ccccc3cn2)nc1OC1CCCNC1` (stereo not shown) [AA-015], the IC50 was ≤ 10 µM.
